Laboratory results as given in ChEMBL document CHEMBL5104195, “Discovery of Orally Bioavailable SOS1 Inhibitors for Suppressing KRAS-Driven Carcinoma” (J Med Chem, 2022).

Columns and labels:
[1] = Half life in ICR mouse at 50 mg/kg, po measured up to 24 hrs by LC-MS/MS analysis; details: in vivo
[2] = target: T1, Cytochrome P450 2C9 (Homo sapiens, UniProt P11712); assay: Inhibition of CYP2C9 in human liver microsomes at 10 uM using diclofenac as substrate preincubated for 10 mins followed by NADPH addition by LC/MS analysis
[3] = Toxicity in BALB/c nude mouse xenografted with human MIA PaCa-21 cells expressing KRAS G12C mutant assessed as animal death at 50 mg/kg, po qd measured on day 21; details: in vivo, 504 h
[4] = in vivo; details: ICR, mouse, po, 50 mg/kg
[5] = Apparent permeability across basolateral side to apical side in dog MDCKII-MDR1 cells; details: MDCK-MDR1
[6] = in vitro; details: mouse, liver microsomes
[7] = dog, in vivo, po, 20 mg/kg, 24 h
[8] = target: T2, Cytochrome P450 3A4 (Homo sapiens, UniProt P08684); assay: Time-dependent inhibition of CYP3A4 (unknown origin) at 2 ul pre-incubated for 30 mins in presence or absence of NADPH incubated for 10 mins by LC/MS analysis
[9] = Cardiotoxicity in Patient-specific iPSC-derived cardiomyocytes assessed as decrease in maximum depolarization rate of action potential at 0.03 to 3 uM by patch clamp assay; details: human, cardiac muscle cell
[10] = rat, in vivo, iv, 2 mg/kg, 24 h
[11] = Half life in overnight fasted Beagle dog at 20 mg/kg, po measured upto 24 hrs by LC/MS/MS analysis; details: in vivo
[12] = Toxicity in BALB/c nude mouse xenografted with human MIA PaCa-21 cells expressing KRAS G12C mutant assessed as weight loss at 50 mg/kg, po qd measured on day 21; details: in vivo
[13] = Elimination rate constant in ICR mouse at 50 mg/kg, po measured up to 24 hrs by LC-MS/MS analysis; details: in vivo
[14] = Cardiotoxicity in Patient-specific iPSC-derived cardiomyocytes assessed as decrease in action potential duration by patch clamp assay; type: toxicity, cell-based; details: human, cardiac muscle cell
[15] = in vitro; details: rat, liver microsomes
[16] = in vitro; details: dog, liver microsomes
[17] = in vivo; details: Sprague-Dawley, rat, po, 10 mg/kg
[18] = target: T3, Cytochrome P450 2C8 (Homo sapiens, UniProt P10632); assay: Time-dependent inhibition of CYP2C8 (unknown origin) at 2 ul pre-incubated for 30 mins in presence or absence of NADPH incubated for 10 mins by LC/MS analysis
T3 sequence (P10632 whole entry): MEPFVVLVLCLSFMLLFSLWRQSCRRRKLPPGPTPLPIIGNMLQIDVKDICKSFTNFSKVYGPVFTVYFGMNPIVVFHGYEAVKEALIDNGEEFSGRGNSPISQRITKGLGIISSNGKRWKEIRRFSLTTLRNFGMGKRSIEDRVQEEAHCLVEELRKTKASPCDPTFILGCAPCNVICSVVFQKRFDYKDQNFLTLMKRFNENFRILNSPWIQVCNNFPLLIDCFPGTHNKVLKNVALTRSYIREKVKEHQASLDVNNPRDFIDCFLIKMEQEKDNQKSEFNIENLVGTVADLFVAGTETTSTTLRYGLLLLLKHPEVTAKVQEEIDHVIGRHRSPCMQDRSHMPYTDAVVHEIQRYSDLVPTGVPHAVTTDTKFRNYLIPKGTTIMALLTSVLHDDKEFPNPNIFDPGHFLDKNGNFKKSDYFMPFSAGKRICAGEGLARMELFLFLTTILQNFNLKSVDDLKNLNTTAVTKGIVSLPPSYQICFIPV

[19] = target: T3, Cytochrome P450 2C8; assay: Inhibition of CYP2C8 in human liver microsomes at 10 uM using amodiaquine as substrate preincubated for 10 mins followed by NADPH addition by LC/MS analysis
[20] = Cardiotoxicity in Patient-specific iPSC-derived cardiomyocytes assessed as decrease in spontaneous beating of myocardial cell at 10 uM by patch clamp assay; details: human, cardiac muscle cell
[21] = target: T4, Cytochrome P450 2D6 (Homo sapiens, UniProt P10635); assay: Time-dependent inhibition of CYP2D6 (unknown origin) at 2 ul pre-incubated for 30 mins in presence or absence of NADPH incubated for 10 mins by LC/MS analysis
[22] = Apparent permeability across apical to basolateral side in dog MDCKII-MDR1 cells; details: MDCK-MDR1
[23] = in vivo; details: ICR, mouse, po, 50 mg/kg; remark: listed apart in the source
[24] = target: T4, Cytochrome P450 2D6; assay: Inhibition of CYP2D6 in human liver microsomes at 10 uM using dextromethorphan as substrate preincubated for 10 mins followed by NADPH addition by LC/MS analysis
[25] = MRT in ICR mouse at 50 mg/kg, po measured up to 24 hrs by LC-MS/MS analysis; details: in vivo
[26] = in vitro; details: human, liver microsomes
[27] = Plasma protein binding in dog at 2 uM preincubated for 1 hr by balanced dialysis based LC-MS/MS analysis
[28] = rat, in vivo, po, 10 mg/kg, 24 h
[29] = target: T1, Cytochrome P450 2C9; assay: Time-dependent inhibition of CYP2C9 (unknown origin) at 2 ul pre-incubated for 30 mins in presence or absence of NADPH incubated for 10 mins by LC/MS analysis
[30] = target: T5, Cytochrome P450 1A2 (Homo sapiens, UniProt P05177); assay: Inhibition of CYP1A2 in human liver microsomes at 10 uM using phenacetin as substrate preincubated for 10 mins followed by NADPH addition by LC/MS analysis
T5 sequence (P05177 whole entry): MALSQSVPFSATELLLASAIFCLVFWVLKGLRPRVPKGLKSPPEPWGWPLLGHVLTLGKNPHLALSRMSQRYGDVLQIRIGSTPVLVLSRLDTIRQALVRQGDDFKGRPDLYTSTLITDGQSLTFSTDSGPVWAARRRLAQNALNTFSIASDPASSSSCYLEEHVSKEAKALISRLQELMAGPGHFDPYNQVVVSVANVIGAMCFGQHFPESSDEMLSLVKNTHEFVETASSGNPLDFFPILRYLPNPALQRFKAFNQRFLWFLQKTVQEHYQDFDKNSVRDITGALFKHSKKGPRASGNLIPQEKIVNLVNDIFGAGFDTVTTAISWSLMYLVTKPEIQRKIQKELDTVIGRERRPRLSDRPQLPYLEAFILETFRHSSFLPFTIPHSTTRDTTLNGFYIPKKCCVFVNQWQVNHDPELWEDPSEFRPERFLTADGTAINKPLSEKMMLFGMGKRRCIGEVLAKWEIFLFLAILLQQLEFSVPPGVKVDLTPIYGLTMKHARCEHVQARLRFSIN

[31] = Half life in Sprague-Dawley rat at 2 mg/kg, iv measured upto 24 hrs by LC/MS/MS analysis; details: in vivo
[32] = rat, in vivo, iv, 2 mg/kg, 24 h; remark: listed apart in the source
[33] = Half life in Sprague-Dawley rat at 10 mg/kg, po measured upto 24 hrs by LC/MS/MS analysis; details: in vivo
[34] = rat, in vivo, po, 10 mg/kg, 24 h; remark: listed apart in the source
[35] = Cardiotoxicity in Patient-specific iPSC-derived cardiomyocytes assessed as decrease in spontaneous beating of myocardial cell at 3 uM by patch clamp assay; details: human, cardiac muscle cell
[36] = target: T2, Cytochrome P450 3A4; assay: Inhibition of CYP3A4 in human liver microsomes at 10 uM using midazolam as substrate preincubated for 10 mins followed by NADPH addition by LC/MS analysis
[37] = Plasma protein binding in monkey at 2 uM preincubated for 1 hr by balanced dialysis based LC-MS/MS analysis; details: rhesus monkey
[38] = in vitro; details: rhesus monkey, liver microsomes
[39] = rat, in vivo, iv, 2 mg/kg, 24 h; remark: listed apart in the source
[40] = in vivo; details: ICR, mouse, po, 50 mg/kg; remark: listed apart in the source
[41] = dog, in vivo, po, 20 mg/kg, 24 h; remark: listed apart in the source
[42] = Plasma protein binding in rat at 2 uM preincubated for 1 hr by balanced dialysis based LC-MS/MS analysis
[43] = Plasma protein binding in mouse at 2 uM preincubated for 1 hr by balanced dialysis based LC-MS/MS analysis
[44] = dog, in vivo, po, 20 mg/kg, 24 h; remark: listed apart in the source
[45] = rat, in vivo, po, 10 mg/kg, 24 h; remark: listed apart in the source

T1 sequence (P11712 whole entry): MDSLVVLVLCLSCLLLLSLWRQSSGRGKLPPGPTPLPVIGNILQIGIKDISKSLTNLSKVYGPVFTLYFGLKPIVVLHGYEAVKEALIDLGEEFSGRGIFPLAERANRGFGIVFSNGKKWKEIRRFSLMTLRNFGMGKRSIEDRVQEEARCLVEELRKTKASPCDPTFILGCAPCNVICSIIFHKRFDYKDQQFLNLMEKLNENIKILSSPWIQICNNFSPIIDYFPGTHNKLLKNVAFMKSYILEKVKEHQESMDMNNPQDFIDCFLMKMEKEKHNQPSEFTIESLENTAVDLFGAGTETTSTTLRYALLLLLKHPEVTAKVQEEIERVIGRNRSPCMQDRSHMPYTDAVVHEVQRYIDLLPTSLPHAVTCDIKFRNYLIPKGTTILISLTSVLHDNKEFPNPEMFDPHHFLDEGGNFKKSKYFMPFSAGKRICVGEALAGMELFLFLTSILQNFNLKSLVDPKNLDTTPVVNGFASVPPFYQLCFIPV
T4 sequence (P10635 whole entry): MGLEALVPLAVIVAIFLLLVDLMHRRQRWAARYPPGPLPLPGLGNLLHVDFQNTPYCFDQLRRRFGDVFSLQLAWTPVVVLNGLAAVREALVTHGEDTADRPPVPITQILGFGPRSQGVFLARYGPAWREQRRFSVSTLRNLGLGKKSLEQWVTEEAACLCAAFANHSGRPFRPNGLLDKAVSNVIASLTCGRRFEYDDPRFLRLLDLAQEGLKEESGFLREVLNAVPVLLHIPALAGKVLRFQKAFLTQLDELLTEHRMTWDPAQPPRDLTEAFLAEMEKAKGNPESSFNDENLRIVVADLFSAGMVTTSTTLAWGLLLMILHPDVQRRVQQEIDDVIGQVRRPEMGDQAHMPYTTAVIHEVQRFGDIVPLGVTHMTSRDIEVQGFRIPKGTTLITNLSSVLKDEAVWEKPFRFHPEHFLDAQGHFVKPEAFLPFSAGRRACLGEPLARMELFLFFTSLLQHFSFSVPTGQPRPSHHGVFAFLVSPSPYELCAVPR
T2 sequence (P08684 whole entry): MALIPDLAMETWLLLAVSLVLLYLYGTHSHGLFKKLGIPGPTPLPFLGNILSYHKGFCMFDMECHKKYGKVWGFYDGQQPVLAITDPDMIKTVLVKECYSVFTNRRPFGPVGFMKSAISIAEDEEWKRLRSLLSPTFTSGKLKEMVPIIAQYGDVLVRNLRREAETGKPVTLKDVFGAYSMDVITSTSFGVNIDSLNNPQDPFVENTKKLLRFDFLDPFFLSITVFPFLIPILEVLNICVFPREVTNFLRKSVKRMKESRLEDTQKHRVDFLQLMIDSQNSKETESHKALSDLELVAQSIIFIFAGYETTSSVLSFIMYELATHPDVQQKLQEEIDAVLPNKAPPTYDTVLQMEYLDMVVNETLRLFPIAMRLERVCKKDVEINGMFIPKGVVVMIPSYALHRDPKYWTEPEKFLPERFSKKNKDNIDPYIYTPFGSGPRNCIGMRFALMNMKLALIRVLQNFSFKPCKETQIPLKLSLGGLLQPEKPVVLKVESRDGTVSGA

## Cc1nc(N[C@H](C)c2cccc(C(F)F)c2F)c2cc3c(cc2n1)OCC[C@H]1CN(CC(F)(F)F)CCN31
[1]
  half-life at 24 h: 4.13 h
[2]
  IC50: 15.4 µM
[3]
  Activity: Non-Toxic
[4]
  Cmax at 24 h: 2260 ng/mL
[5]
  Papp B→A: 0.78 ×10⁻⁶ cm/s
[6]
  CLint scaled at 1 h, 1 µM: 436 mL/min/kg
[7]
  AUC: 1322 ng·h/mL
[8]
  IC50: > 100 µM
[9]
  Activity: Toxic
[10]
  Tmax: 4.8 min
[11]
  t1/2: 6.74 h
[12]
  Activity: Non-Toxic
[13]
  k el at 24 h: 4.75e-05 s⁻¹
[14]
  Activity: Toxic
[15]
  CLint scaled at 1 h, 1 µM: 516 mL/min/kg
[16]
  CLint scaled at 1 h, 1 µM: 12 mL/min/kg
[17]
  bioavailability at 24 h: 18.8%
[18]
  IC50: 39.1 µM
[19]
  IC50: 45.2 µM
[20]
  Activity: Toxic
[21]
  IC50: 4.3 µM
[22]
  Papp A→B: 0.26 ×10⁻⁶ cm/s
[23]
  AUC at 24 h: 19900 ng·h/mL
[24]
  IC50: 6.1 µM
[25]
  MRT at 24 h: 5.5 h
[26]
  CLint scaled at 1 h, 1 µM: 442 mL/min/kg
[27]
  fraction unbound at 1 h, 2 µM: 0.002
[28]
  Cmax: 109 ng/mL
[29]
  IC50: 14.6 µM
[30]
  IC50: > 100 µM
[31]
  t1/2: 5.35 h
[32]
  AUC: 596 ng·h/mL
[33]
  t1/2: 2 h
[34]
  AUC: 563 ng·h/mL
[35]
  Activity: Toxic
[36]
  IC50: > 100 µM
[37]
  fraction unbound at 1 h, 2 µM: 0.001
[38]
  CLint scaled at 1 h, 1 µM: 396 mL/min/kg
[39]
  Cmax: 518 ng/mL
[40]
  Tmax at 24 h: 0.833 h
[41]
  Cmax: 232 ng/mL
[42]
  fraction unbound at 1 h, 2 µM: 0.001
[43]
  fraction unbound at 1 h, 2 µM: 0.001
[44]
  Tmax: 1.17 h
[45]
  Tmax: 2.33 h
